The results in this text go back to ChEMBL document CHEMBL1201862, “PubChem BioAssay data set” (2004).

As a reminder, the GI50 is the concentration giving 50% growth inhibition.

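Growth conditions: 96-well plates. Treatment: test compound, 48 hours, 5 concentrations. Analysis: linear interpolation between bracketing concentrations; unreached endpoints set to highest concentration. GI50: concentration for 50% inhibition of growth.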 Activity calls are given as the source filed them. Cut-off read from the data, not from the text of the source: active = GI50 up to about 1.1 µM and inactive = higher.

Some test systems named below: T47D; HL-60; SF-268; RXF 393; UACC-257; HCT-15; KM12; HOP-62; DU-145; EKVX; TK-10; IGROV-1; SNB-19; OVCAR-4; M14; OVCAR-5; CCRF-CEM; K562; RPMI-8226; NCI-H522.
Holding throughout (assay): DTP human tumour cell line panel, 48 h

For the molecule `CC(=O)/C(=C/n1c(=S)[nH]c2ccccc21)C(=O)Nc1ccccc1C`, the GI50 with T47D is > 100 µM (inactive); in the test with HL-60 it was > 100 µM (inactive); in the test on SF-268, > 100 µM (inactive); in the test on RXF 393 it was > 100 µM (inactive); with UACC-257, > 100 µM (inactive); with HCT-15, more than 100 µM. Besides, the GI50 in the test with KM12, in the test with HOP-62, in the test on DU-145, in the test on EKVX, in the test on TK-10 and with IGROV-1 was > 100 µM (inactive) in each case. The GI50 in the test with SNB-19, in the test on OVCAR-4, with M14 and in the test on OVCAR-5 was > 100 µM (inactive) in each case.

Turning to `Cn1c2ccccc2c(=O)c2c(O)cc3c(c21)C1OCC(C)(O)C1O3` (centres undefined), the GI50 with CCRF-CEM is 23.8 µM (inactive); in the test on T47D, 42.7 µM (inactive); in the test on HL-60 it was 81.5 µM (inactive); in the test on SF-268, 26.6 µM (inactive); in the test with RXF 393 it was 22.5 µM (inactive); with UACC-257, > 100 µM (inactive). Moreover, the GI50 with HCT-15 was 53.3 µM; in the test on HOP-62, 23.6 µM (inactive); in the test on DU-145 it was 29.2 µM (inactive); with EKVX, 7.48 µM (inactive); with TK-10 it was 82 µM (inactive); in the test with K562, 53.3 µM (inactive). The GI50 with IGROV-1 was 25.3 µM (inactive); in the test with SNB-19, 26.6 µM (inactive); with OVCAR-4 it was > 100 µM (inactive); in the test on RPMI-8226 it was 85.7 µM (inactive); in the test with M14, > 100 µM (inactive); with OVCAR-5 it was 19.5 µM (inactive).

As for `C/C(=C\c1ccccc1)C(=O)NCc1ccc(C(=O)NCCc2ccccc2)cc1`, the GI50 with CCRF-CEM was > 100 µM (inactive); in the test on NCI-H522, > 100 µM (inactive); in the test on T47D, > 89.7 µM (inactive); in the test on SF-268, 4.37 µM (inactive); in the test with RXF 393 it was 13.8 µM (inactive); with UACC-257 it was > 100 µM (inactive). The GI50 was more than 100 µM with HCT-15; > 100 µM (inactive) with KM12; 3 µM (inactive) in the test on HOP-62; > 100 µM (inactive) in the test on DU-145; 22.5 µM (inactive) with EKVX; 41.9 µM (inactive) in the test with TK-10. Further, the GI50 in the test with K562 was > 100 µM (inactive); with IGROV-1, 35.8 µM (inactive); in the test with SNB-19 it was 9.42 µM (inactive); in the test on OVCAR-4, > 100 µM (inactive); in the test on RPMI-8226, > 100 µM (inactive); in the test on M14 it was > 100 µM (inactive). Besides, in the test on OVCAR-5, the GI50 was > 96.2 µM (inactive).

Turning to `COc1cc(/C=C2/SC(c3ccccc3)N(Cc3ccccc3)C2=O)cc(OC)c1OC` (centres undefined), the GI50 was 17.2 µM (inactive) in the test on NCI-H522; 27.2 µM (inactive) with T47D; 48.1 µM (inactive) in the test with SF-268; 7.14 µM (inactive) in the test with RXF 393; 33.7 µM (inactive) in the test on UACC-257; 38.7 µM in the test on HCT-15. For the same molecule, the GI50 was 27.2 µM (inactive) with KM12; 54.3 µM (inactive) in the test on HOP-62; 42.7 µM (inactive) with DU-145; 42.9 µM (inactive) with EKVX; 53 µM (inactive) in the test with TK-10; 16.4 µM (inactive) in the test with K562. For the same molecule, the GI50 is > 100 µM (inactive) in the test on SNB-19; 31.4 µM (inactive) in the test on OVCAR-4; 14.4 µM (inactive) with RPMI-8226; 75.3 µM (inactive) in the test with M14; 80.9 µM (inactive) with OVCAR-5.

Consider `CCOC(=O)C1=CN/C(=C(/C)C(=O)OC)SC1C(=O)OCC` (centres undefined), for which the GI50 with CCRF-CEM is > 61 µM (inactive); with NCI-H522 it was > 76.7 µM (inactive); with T47D, 57.9 µM (inactive); with SF-268 it was > 100 µM (inactive); with RXF 393 it was > 100 µM (inactive); in the test on UACC-257, > 100 µM (inactive). In addition, the concentration for 50% growth inhibition (GI50) in the test with HCT-15 was more than 100 µM; with KM12, > 100 µM (inactive); in the test on HOP-62 it was > 100 µM (inactive); in the test on DU-145, > 100 µM (inactive); in the test on EKVX, > 100 µM (inactive); with TK-10, > 92.9 µM (inactive). Besides, the GI50 in the test with K562 was 17.5 µM (inactive); in the test on IGROV-1 it was > 100 µM (inactive); with SNB-19, 98.2 µM (inactive); in the test on OVCAR-4 it was > 100 µM (inactive); in the test on RPMI-8226 it was 68.9 µM (inactive); in the test with M14, > 100 µM (inactive). Moreover, the GI50 with OVCAR-5 was > 100 µM (inactive).

Regarding `C[C@]12C[C@H](O)[C@H]3[C@@H](CCC4=CC(=O)CC[C@@]43C)[C@@H]1CC[C@@H]2c1csc(-c2ccccc2)n1`, the GI50 was 4.16 µM (inactive) in the test on NCI-H522; 3.15 µM (inactive) with T47D; > 53.8 µM (inactive) in the test with SF-268; 72.4 µM (inactive) in the test on RXF 393; 3.48 µM (inactive) in the test with UACC-257; more than 100 µM with HCT-15. Also, the GI50 is > 46.7 µM (inactive) with KM12; 9.53 µM (inactive) in the test on HOP-62; > 51.6 µM (inactive) with DU-145; 21 µM (inactive) with EKVX; 26.1 µM (inactive) with TK-10; 1.52 µM (inactive) in the test on K562. Also, the GI50 in the test on IGROV-1 is > 68.5 µM (inactive); in the test on SNB-19, 29.6 µM (inactive); with OVCAR-4, 23.2 µM (inactive); with RPMI-8226, 3.56 µM (inactive); in the test with M14, > 92.7 µM (inactive); with OVCAR-5, > 100 µM (inactive).

For `CC(C)(Br)C(Br)CCC(C)(Br)C(Br)CO` (centres undefined), the GI50 in the test on CCRF-CEM, with NCI-H522, in the test with T47D, with SF-268, with RXF 393 and in the test on UACC-257 was > 10 µM (inactive) in each case. Also, the GI50 was more than 10 µM in the test with HCT-15; > 10 µM (inactive) in the test on HOP-62; > 10 µM (inactive) with DU-145; > 10 µM (inactive) in the test on EKVX; > 10 µM (inactive) in the test with K562; > 10 µM (inactive) with IGROV-1. The GI50 with SNB-19, in the test with OVCAR-4, in the test on RPMI-8226 and with M14 was > 10 µM (inactive) in each case.

With `Nc1n2nc(-c3ccccc3)sc2n[n+]1CC(=O)c1ccccc1`, the GI50 with CCRF-CEM is 3.07 µM (inactive); with NCI-H522, 15.8 µM (inactive); in the test on T47D it was 30.4 µM (inactive); in the test with SF-268, 24.4 µM (inactive); in the test on RXF 393, 10.8 µM (inactive); in the test with UACC-257, 26.1 µM (inactive). Also, the GI50 in the test on HCT-15 is 12.9 µM; in the test on KM12 it was 6.3 µM (inactive); with HOP-62 it was 14 µM (inactive); in the test with DU-145 it was 17.8 µM (inactive); in the test with EKVX it was 31.6 µM (inactive); in the test on TK-10, 27.4 µM (inactive). Besides, the GI50 with K562 was 3.09 µM (inactive); with IGROV-1, 12.6 µM (inactive); in the test on SNB-19 it was 21.7 µM (inactive); in the test on OVCAR-4, 47.2 µM (inactive); with RPMI-8226 it was 12.5 µM (inactive); in the test on M14, 10.1 µM (inactive). Moreover, the GI50 with OVCAR-5 is 34.8 µM (inactive).

For `Cc1cc2nc(N3C(=O)/C(=C/Cc4ccco4)N=C3c3ccccc3)sc2cc1C`, the GI50 in the test on CCRF-CEM was 9.18 µM (inactive); in the test with T47D, 31 µM (inactive); in the test on HL-60, 23 µM (inactive); with SF-268, 40.4 µM (inactive); in the test on RXF 393, 13.6 µM (inactive); with UACC-257, 26 µM (inactive). For the same molecule, the GI50 was 30.5 µM with HCT-15; 25.9 µM (inactive) in the test with KM12; 54.7 µM (inactive) in the test on HOP-62; 61.9 µM (inactive) with DU-145; 20.7 µM (inactive) with EKVX; 84.1 µM (inactive) in the test with TK-10. Moreover, the GI50 with K562 is 22.8 µM (inactive); in the test on IGROV-1, 21.3 µM (inactive); in the test with SNB-19 it was 49.7 µM (inactive); with OVCAR-4, 29.5 µM (inactive); in the test on RPMI-8226, 23.7 µM (inactive); in the test on M14, 35.6 µM (inactive). In addition, the GI50 in the test with OVCAR-5 is 24.9 µM (inactive).

`CC(=O)/N=S(/NC(=O)c1ccc(C)cc1)C(Cl)(Cl)Cl` (centres undefined): the GI50 in the test with CCRF-CEM was 18.6 µM (inactive); in the test with T47D, 34.3 µM (inactive); in the test on HL-60, 0.226 µM (active); in the test with SF-268, 97.1 µM (inactive); in the test on RXF 393 it was 44.6 µM (inactive); with UACC-257, 44 µM (inactive). Moreover, the GI50 in the test with HCT-15 is 42.8 µM; in the test with KM12, > 100 µM (inactive); with HOP-62, 56.4 µM (inactive); in the test on DU-145 it was > 100 µM (inactive); in the test on EKVX, 44.5 µM (inactive); in the test on TK-10, > 100 µM (inactive). Moreover, the GI50 in the test with K562 was 23.9 µM (inactive); in the test with IGROV-1, 38.6 µM (inactive); in the test on SNB-19, 94.8 µM (inactive); in the test with OVCAR-4 it was 31.2 µM (inactive); in the test on RPMI-8226, 74.3 µM (inactive); in the test on M14, 15.7 µM (inactive). Besides, the GI50 in the test on OVCAR-5 was 36.2 µM (inactive).

On to `O=C1OI(C#Cc2ccccc2)c2ccccc21`, for which the GI50 was 0.355 µM (active) with CCRF-CEM; 3.16 µM (inactive) with T47D; 1.12 µM (active) in the test on HL-60; 2.84 µM (inactive) with SF-268; 5.43 µM (inactive) in the test on RXF 393; 5.2 µM (inactive) in the test on UACC-257. The GI50 in the test with HCT-15 was 3.18 µM; with KM12, 3.52 µM (inactive); in the test on HOP-62, 6.41 µM (inactive); in the test with DU-145, 7.18 µM (inactive); in the test on EKVX, 2.76 µM (inactive); in the test with TK-10 it was 3.29 µM (inactive). The GI50 in the test on K562 is 2.15 µM (inactive); in the test with IGROV-1, 2.14 µM (inactive); in the test on SNB-19, 7.29 µM (inactive); in the test on OVCAR-4, 3.93 µM (inactive); in the test with RPMI-8226, 1.57 µM (inactive); in the test with M14, 4.38 µM (inactive). In addition, the GI50 with OVCAR-5 is 5.82 µM (inactive).
